For one assay, the system named is MV4:11 cells. Kind of assay: Cellular viability / anti-proliferative activity, CellTiter-Glo, 7 day protocol. The following applies: 168 h. The format is cell-based, human. As to the method:
Anti proliferative activity using MLL-harboring cell lines. MV4:11 cells are grown in RPMI-1640 media supplemented with 10% FBS and 1% penicillin/streptomycin. Viability assays are performed by dispensing […] into each well of an opaque 384-well plate and adding compounds at the indicated concentrations in a final volume of 32 μL and a final concentration of DMSO of 0.1% for all samples. After a set incubation period, 7 day protocol, the viability of cells in each well is assessed using the CellTiter-Glo assay (Promega), read on a GloMax 96 Microplane Luminometer (Promega). Serial dilutions of each cell type are included in all assays to generate standard curves and determine assay measurements are taken within the dynamic range of the instrument. GI50 values are calculated based on three biological replicates, each with three technical replicates. Data are expressed as mean plus/minus S.E.M.
On the technique in general: ATP-based viability assays read luminescence as a measure of living cells.

The target of assay [1] is T1, WDR5 (Homo sapiens (Human), UniProt P61964). The assay is described as follows: Fluorescence polarization anisotropy (FPA) competition assay, displacement of FITC-MLL or 10mer-Thr-FAM peptide. In kind it is binding. The text has this: The assay is run in 384-well format and is read on a BioTek Cytation. […] Replicate values are fit to a 4-parameter fit in XLFit to generate a single IC50 value for each compound that is then converted to a Ki value. Experiments are repeated to generate a 2nd, independent Ki value; values from the two experiments are averaged to produce the reported Ki value for the compound.
A general note: Fluorescence polarisation rises when a labelled molecule tumbles more slowly, as on binding a larger partner.

Assay [2] deals with T1, WDR5. Kind of assay: TR-FRET binding assay, displacement of 10mer-Thr-FAM probe from His-tagged WDR5. As to conditions: Inhibition of WDR5 by TR-FRET assay. As to the method: The LanthaScreenTM Elite Tb-anti-HIS Antibody from ThermoFisher Scientific was used for this purpose. […] The ratio of the 520 and 495 signals are then utilized to generate a dose-response curve to calculate an IC50 value. […] WDR[…] tag protein is used at 2 nM.
In general terms: In TR-FRET formats the signal depends on donor and acceptor labels being close together.

Where [3] appears, read: cellular proliferation of MV4:11 human cancer cell lines, 7 day.
Setting [4] is: Inhibition of WDR5 by FPA assay.
[5] abbreviates: Table C2, WDR5 WIN-site binding affinity, values not less than 1 nM (FPA).

Where only a bound is given, the exact number is not on record here.

With `Cc1cc(CNC(=O)c2cc(CNC3=NCCC3)cc(-c3ccc(F)cc3C)c2)ccc1Cl` [Example 64, N-(4-Chloro-3-methylbenzyl)-5-(((3,4-dihydro-2H-pyrrol-5-yl)amino)methyl)-4′-fluoro-2′-methyl-[1,1′-biphenyl]-3-carboxamide], the GI50 with MV4:11 cells (setting [3]) was found to be 280 nM.

`O=C(NCc1ccc(Cl)c(Cl)c1)c1cc(Cn2ccnc2)cc(-c2ccc(F)cc2Cl)c1` [Example 116, 5-((1H-Imidazol-1-yl)methyl)-2′-chloro-N-(3,4-dichlorobenzyl)-4′-fluoro-[1,1′-biphenyl]-3-carboxamide] gave a concentration for 50% growth inhibition (GI50) with MV4:11 cells (setting [3]) of 3800 nM.

In the case of `Cc1nc(F)ccc1-c1cc(Cn2ccnc2)cc(C(=O)NC(C2CC2)C2CC2)c1` [Example 133, 3-((1H-imidazol-1-yl)methyl)-N-(dicyclopropylmethyl)-5-(6-fluoro-2-methylpyridin-3-yl)benzamide], the inhibitory constant (Ki) at WDR5 [1] (setting [4]) turned out to be 3.5 nM; at WDR5 [2], 4.6 nM.

In the case of `Cc1ccnc(C(NC(=O)c2cc(Cn3ccnc3)cc(-c3ccc(F)nc3C)c2)C2CC2)c1` (centres unmarked) [Example 137, 3-((1H-Imidazol-1-yl)methyl)-N-(cyclopropyl(4-methylpyridin-2-yl)methyl)-5-(6-fluoro-2-methylpyridin-3-yl)benzamide], the Ki is less than 1 nM at WDR5 [1] (setting [4]) and 2 nM on WDR5 [2].

Consider `Cc1ccnc(C(NC(=O)c2cc(Cn3ccnc3)cc(-c3ccc(F)cc3Cl)n2)C2CC2)c1` (centres unmarked) [Example 150, 4-((1H-Imidazol-1-yl)methyl)-6-(2-chloro-4-fluorophenyl)-N-(cyclopropyl(4-methylpyridin-2-yl)methyl)picolinamide], for which the inhibition constant (Ki) on WDR5 [1] (setting [4]) amounted to 1.1 nM; on WDR5 [2], 5.71 nM.

As for `Cc1cccc(CNC(=O)c2cc(Cn3ccnc3)cc(-c3ccc(F)cc3Cl)n2)n1` [Example 151, 4-((1H-Imidazol-1-yl)methyl)-6-(2-chloro-4-fluorophenyl)-N-((6-methylpyridin-2-yl)methyl)picolinamide], the Ki at WDR5 [1] (setting [4]) is 8.7 nM; at WDR5 [2] it was 32 nM.

Consider `Cc1cc(F)ccc1-c1cc(Cn2ccnc2C)cc(C(=O)NCc2ccc(Cl)c(Cl)c2)n1` [Example 156, N-(3,4-dichlorobenzyl)-6-(4-fluoro-2-methylphenyl)-4-((2-methyl-1H-imidazol-1-yl)methyl)picolinamide], for which it took 630 nM to inhibit growth in the assay on MV4:11 cells (setting [3]) by half (GI50).

With `Cc1nc(F)ccc1-c1cc(Cn2ccnc2C)cc(C(=O)NCc2ccc(Cl)c(Cl)c2)n1` [Example 164, N-(3,4-dichlorobenzyl)-6′-fluoro-2′-methyl-4-((2-methyl-1H-imidazol-1-yl)methyl)-[2,3′-bipyridine]-6-carboxamide], in the assay on MV4:11 cells (setting [3]), the GI50 came to 1100 nM.

In the case of `Cc1cnccc1-c1cc(Cn2ccnc2C)cc(C(=O)NCc2ccc(Cl)c(Cl)c2)n1` [Example 166, N-(3,4-Dichlorobenzyl)-3′-methyl-4-((2-methyl-1H-imidazol-1-yl)methyl)-[2,4′-bipyridine]-6-carboxamide], in the assay with MV4:11 cells (setting [3]), halving of growth (GI50) required 240 nM.

Regarding `COc1cc(CNC(=O)c2ccc(F)c(CNC3=NCCN3)c2)cc(OC)c1` [Example B15, 3-(((4,5-dihydro-1H-imidazol-2-yl)amino)methyl)-N-(3,5-dimethoxybenzyl)-4-fluorobenzamide], growth in the assay on MV4:11 cells (Homo sapiens, MV4:11 leukemia cells after a 7 day incubation period) was halved (GI50) at 893 nM.

On WDR5 [1] (setting [5]), `Cc1cnc(C(C)NC(=O)c2cc(CNC3=NCCC3)cc(-c3ccc(F)cc3C(F)(F)F)n2)cc1Cl` (centres unmarked) [Example C32] returned a Ki of 1.54 nM.

`COc1cc(OC)cc(C(C)NC(=O)c2ccnc(CNC3=NCCN3)c2)c1` (centres unmarked) [Example C34, 2-(((4,5-dihydro-1H-imidazol-2-yl)amino)methyl)-N-(1-(3,5-dimethoxyphenyl)ethyl)isonicotinamide]: the affinity on WDR5 [1] (setting [5]), expressed as Ki, was 32.5 nM.

In the case of `COc1cc(OC)cc(C(C)NC(=O)c2ccnc(CNC3=NCCC3)c2)c1` (centres unmarked) [Example C35, 2-(((3,4-dihydro-2H-pyrrol-5-yl)amino)methyl)-N-(1-(3,5-dimethoxyphenyl)ethyl)isonicotinamide], the inhibitory constant (Ki) at WDR5 [1] (setting [5]) stood at 44.1 nM.

A word on the GI50: it is the concentration at which growth is held to half of that of the control. The term Ki denotes a measure of affinity in units of concentration, obtained from inhibition or displacement. High values mean weaker binding, low ones tighter binding.

The values above are taken from US10807959B2, “WDR5-MLL1 inhibitors and modulators” (Vanderbilt University, priority 2018, dated 2020).
